From US9661848B2, “Substituted 4-cyan-3-(pyridyl)-4-phenylbutanoates, method for the production thereof and uses as herbicides and plant growth regulators” (BAYER CROPSCIENCE AG, priority 2012, dated 2017)

What was measured:
Avena fatua = assay: Herbicidal post-emergence action; format: in vivo; conditions: post-emergence method; 0.32 kg of active substance per hectare
Description: (§1) Seeds of monocotyledonous and dicotyledonous weeds and crop plants were placed in sandy loam in wood-fibre pots, covered with soil and cultivated in a greenhouse under good growth conditions. 2 to 3 weeks after sowing, the test plants were treated at the one-leaf stage, where the compounds (I) according to the invention, formulated in the form of wettable powders (WP), were applied by spraying as aqueous suspension or emulsion at a water application rate of 600 l/ha (converted) with the addition of 0.2% of wetting agent to the green parts of the plants. After the test plants had been kept in the greenhouse under optimum growth conditions for about 3 weeks, the activity of the preparations was rated visually in comparison to untreated controls in per cent (%). For example, 100% activity=the plants have died, 50% herbicidal activity or damage=the plants have been reduced by 50% or the plant mass has been reduced by 50%, 0% activity=like control plants.

Alopecurus myosuroides = assay: Herbicidal post-emergence action; format: in vivo; conditions: post-emergence method; 0.32 kg of active substance per hectare
Description: as §1

COC(=O)C[C@@H](c1cncc(F)c1)[C@H](C#N)c1cccc(F)c1 [erythro-2-Ibb732]
activity against Avena fatua (Avena fatua): 90-100%
activity against Alopecurus myosuroides (Alopecurus myosuroides): 90-100%
